Structures are written as SMILES.

One data set has as its target T1, mouse EP4 receptor (Mus musculus, UniProt P32240).
T1 construct: purchased Genscript; host or cells: U2OS clone
Put plainly: Competitive Radioligand EP4 Receptor Binding Assay ([3H]-PGE2, U2OS membranes). The following applies: mouse EP4-overexpressing cell membrane fraction, 12 nM [3H]-PGE2; read-out: Ki of inhibition of radiolabelled PGE2 binding, mouse EP4. As for the experimental part: (§1) Competitive Radioligand EP4 Receptor Binding Assay: The assay was performed using ChemiScreen recombinant human EP4 receptor membrane preparations from Millipore using Chem-1 cells and mouse EP4 receptor membrane preparations from Genscript using U2OS clone, according to manufacturer's instructions. For human EP4 binding, 10 μg Chem-1 cell membranes overexpressing human EP4 cDNA were mixed with 12 nM [^3H]-PGE2 and 5 μmol/L unlabeled PGE2 or 0.1% DMSO in the presence or absence of various concentrations of testing compounds in binding buffer (50 mM HEPES, pH 7.4, 5 mM MgCl2, 1 mM CaCl2, 0.2% BSA) in a nonbinding 96-well plate, and incubated for 2 h at room temperature. For mouse EP4 binding, 60 μg of U2OS membranes were used in the same condition. Prior to filtration, a GF/C 96-well filter plate was coated with 0.33% polyethyleneimine for 30 min, then washed with 50 mM HEPES, pH 7.4, 0.5% BSA. Binding reactions were transferred to the filter plate, and washed 3 times with assay Wash Buffer (50 mM HEPES, pH7.4, 500 mM NaCl, 0.1% BSA). The plate was dried and radioactivity counted. The data were processed using PRISM software, and IC50 and Ki values were calculated using the same software.

For the next data set, the system named is 4T1 cells. Put plainly: In vivo anti-tumor pharmacology, mouse breast 4T1 syngeneic tumor model. As for the experimental part:
In vivo Anti-tumor Pharmacology: 4T1 cells were maintained in RPMI 1640 medium supplemented with 10% FBS at 37° C. and 5% CO2 atmosphere. Cell detachment was obtained using standard trypsinization methods, quantification of cell numbers and viability information using the NC-200 automated cell counter. Compound 1 was thoroughly suspended in 0.5% methyl cellulose (MC) by sonication at 4° C. for 15 min before oral administration (p.o.) to animals. BALB/c mice were injected subcutaneously (s.c.) with live 1×10^5 4 T1 cells. Mice developed tumors of approximately 36 mm^3 in 5 days. 4T1 tumor-bearing mice were randomized and mapped into 5 groups of 10 mice each: group A received vehicle (0.5% MC); group B received 0.1 mg/kg of compound 1; group C received 1 mg/kg of compound 1, group D received 25 mg/kg of compound 1; and group E received 150 mg/kg of compound 1. All treatments were give p.o. daily for 21 consecutive days. Tumor volumes and body weights were measured twice weekly. Study was terminated 27 days after tumor cell injection. Tumor volumes were expressed as mean±SEM. Tumor volume differences among treated mouse groups on day 27 were analyzed by the one-way ANOVA followed by Tukey's test. P≤0.05 values were considered significant.

For data set [1], the target named is T2, EP4 (Homo sapiens, UniProt P35408). Put plainly: Competitive Radioligand EP4 Receptor Binding Assay ([3H]-PGE2, Chem-1 cell membranes). The arrangement: purchased Millipore; host or cells: Chem-1 cells. The following applies: human EP4-overexpressing cell membrane fraction, 12 nM [3H]-PGE2; read-out: Ki of inhibition of radiolabelled PGE2 binding, human EP4. As for the experimental part: as §1

Data set [2] concerns the target T2, EP4. Kind of data set: EP4 Antagonism by CRE-PLAP Reporter Assay (SE302 cells, PGE2-stimulated). The arrangement: HEK293 cells express endogenous EP4; endogenous in cells; host or cells: SE302 (HEK293 clone with CRE-PLAP reporter). Type of data set: cell-based. Particulars: SE302 (HEK293) cells, 3 ng/mL PGE2, overnight; single or multiple assay average values. The method, boiled down: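 HEK293-derived SE302 cells with endogenous EP4 and CRE-driven secreted PLAP, in serum-free medium with 0.1% BSA, stimulated overnight with 3 ng/mL PGE2 plus compound. Supernatant PLAP read by luminescence (pH 11 carbonate buffer, 2 h). IC50 from % of control, normalized to DMSO with and without PGE2.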

T2 sequence (P35408 whole entry): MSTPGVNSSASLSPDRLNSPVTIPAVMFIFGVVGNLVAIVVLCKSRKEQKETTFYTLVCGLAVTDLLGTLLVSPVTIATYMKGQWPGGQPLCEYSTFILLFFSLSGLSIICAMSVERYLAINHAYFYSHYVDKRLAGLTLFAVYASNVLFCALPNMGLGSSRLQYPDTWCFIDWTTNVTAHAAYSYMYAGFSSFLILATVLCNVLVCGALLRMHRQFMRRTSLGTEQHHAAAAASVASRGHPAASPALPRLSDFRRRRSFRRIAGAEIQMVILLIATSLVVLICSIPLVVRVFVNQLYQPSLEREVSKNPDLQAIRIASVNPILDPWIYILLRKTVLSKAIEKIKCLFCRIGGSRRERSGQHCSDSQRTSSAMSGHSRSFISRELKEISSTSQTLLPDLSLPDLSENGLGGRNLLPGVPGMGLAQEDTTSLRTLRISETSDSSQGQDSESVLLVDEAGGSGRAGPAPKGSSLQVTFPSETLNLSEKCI
T1 sequence (P32240 whole entry): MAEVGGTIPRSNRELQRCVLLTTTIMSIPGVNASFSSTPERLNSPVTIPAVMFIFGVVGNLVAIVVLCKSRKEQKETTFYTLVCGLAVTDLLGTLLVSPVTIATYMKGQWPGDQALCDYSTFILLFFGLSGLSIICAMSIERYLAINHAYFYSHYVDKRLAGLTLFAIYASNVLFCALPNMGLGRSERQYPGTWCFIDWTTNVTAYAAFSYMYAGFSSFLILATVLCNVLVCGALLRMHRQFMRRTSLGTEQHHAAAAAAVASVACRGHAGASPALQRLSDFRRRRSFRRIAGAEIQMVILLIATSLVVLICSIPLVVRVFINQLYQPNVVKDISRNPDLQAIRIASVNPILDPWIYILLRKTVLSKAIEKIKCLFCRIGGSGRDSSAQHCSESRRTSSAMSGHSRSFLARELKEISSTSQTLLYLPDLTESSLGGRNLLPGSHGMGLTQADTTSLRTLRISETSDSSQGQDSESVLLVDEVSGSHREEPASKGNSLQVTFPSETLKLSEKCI

With `C[C@H](NC(=O)c1c(C(F)(F)F)nn2c1N(Cc1cccc(C(F)(F)F)c1)CC2)c1ccc(C(=O)O)cc1` [Compound 1, (S)-4-(1-(6-(trifluoromethyl)-1-(3-(trifluoromethyl)benzyl)-2,3-dihydro-1H-imidazo[1,2-b]pyrazole-7-carboxamido)ethyl)benzoic Acid], the Ki at mouse EP4 receptor came out at 26.3 nM; at EP4 [1], 4.2 nM. Besides, the “gross toxicity judged from animal body weight and overall animal behavior” value with 4T1 cells (0.1-150 mg/kg p.o. daily for 21 days, BALB/c mice) was “None of the doses tested showed gross toxicity”. Besides, the tumor growth inhibition entry in the data set with 4T1 cells (0.1 and 1.0 mg/kg p.o. daily for 21 days, day 27) was “some inhibition was observed, but without statistical significance”; in the data set on 4T1 cells (25 and 150 mg/kg p.o. daily for 21 days, day 27), “Statistically significant inhibition of tumor growth”; with 4T1 cells (25 and 150 mg/kg p.o. daily for 21 days, day 27, listed as compound 1), “significant and comparable anti-tumor activity”; in the data set with 4T1 cells (BALB/c mice, 4T1 s.c. tumors, p.o. daily for 21 days, range 0.1 mg/kg-150 mg/kg), “inhibited the tumor growth in a dose-dependent manner”. This compound also yielded a half-maximal inhibitory concentration (IC50) against EP4 [2] of 0.34 nM.
As for `C[C@H](NC(=O)c1c(C(F)(F)F)nn2c1N(Cc1ccc(Cl)cc1)CC2)c1ccc(C(=O)O)cc1` [Compound 31, (S)-4-(1-(1-(4-chlorobenzyl)-6-(trifluoromethyl)-2,3-dihydro-1H-imidazo[1,2-b]pyrazole-7-carboxamido)ethyl)benzoic Acid], on EP4 [2], the IC50 worked out at 0.99 nM.
On the same count and under the same terms, under `C[C@H](NC(=O)c1c(C(F)(F)F)nn2c1N(Cc1cccc(C(F)(F)F)c1)CC2)c1ccc(C(=O)NS(=O)(=O)C2CC2)cc1` [Compound 56, (S)—N-(1-(4-((cyclopropylsulfonyl)carbamoyl)phenyl)ethyl)-6-(trifluoromethyl)-1-(3-(trifluoromethyl)benzyl)-2,3-dihydro-1H-imidazo[1,2-b]pyrazole-7-carboxamide] stands 73 nM; under `C[C@H](NC(=O)c1c(C(F)(F)F)nn2c1N(Cc1cc(Cl)cc(C(F)(F)F)c1)CC2)c1ccc(C(=O)O)cc1` [Compound 6, (S)-4-(1-(1-(3-chloro-5-(trifluoromethyl)benzyl)-6-(trifluoromethyl)-2,3-dihydro-1H-imidazo[1,2-b]pyrazole-7-carboxamido)ethyl)benzoic Acid], 0.14 nM; under `C[C@H](NC(=O)c1c(C(F)(F)F)nn2c1N(c1cccc(Cl)c1)CC2)c1ccc(C(=O)O)cc1` [Compound 49, (S)-4-(1-(1-(3-chlorophenyl)-6-(trifluoromethyl)-2,3-dihydro-1H-imidazo[1,2-b]pyrazole-7-carboxamido)ethyl)benzoic Acid], 100 nM.
The same measure, in the same setting: as for `Cc1cn(Cc2cccc(C(F)(F)F)c2)c2c(C(=O)N[C@@H](C)c3ccc(C(=O)O)cc3)c(C(F)(F)F)nn12` [Compound 82, (S)-4-(1-(3-methyl-6-(trifluoromethyl)-1-(3-(trifluoromethyl)benzyl)-1H-imidazo[1,2-b]pyrazole-7-carboxamido)ethyl)benzoic acid], the figure is 1.1 nM.
On the same count and under the same terms, as for `C[C@H](NC(=O)c1c(C(F)(F)F)nn2c1N(Cc1cccc(COCCF)c1)CC2)c1ccc(C(=O)O)cc1` [Compound 74, (S)-4-(1-(1-(3-((2-fluoroethoxy)methyl)benzyl)-6-(trifluoromethyl)-2,3-dihydro-1H-imidazo[1,2-b]pyrazole-7-carboxamido)ethyl)benzoic Acid], the figure is 28 nM; as for `C[C@H](NC(=O)c1c(C(F)(F)F)nn2c1N(Cc1cccc(CF)c1)CC2)c1ccc(C(=O)O)cc1` [Compound 67, (S)-4-(1-(1-(3-(fluoromethyl)benzyl)-6-(trifluoromethyl)-2,3-dihydro-1H-imidazo[1,2-b]pyrazole-7-carboxamido)ethyl)benzoic Acid], 1.2 nM.
`C[C@H](NC(=O)c1c(C(F)(F)F)nn2c1N(Cc1ccc(C(F)(F)F)cc1)CC2)c1ccc(C(=O)O)c(F)c1` [Compound 21, (S)-2-fluoro-4-(1-(6-(trifluoromethyl)-1-(4-(trifluoromethyl)benzyl)-2,3-dihydro-1H-imidazo[1,2-b]pyrazole-7-carboxamido)ethyl)benzoic Acid] returned a half-inhibitory concentration (IC50) against EP4 [2] of 2.85 nM.
On to `C[C@H](NC(=O)c1c(C(F)(F)F)nn2c1N(c1ccc(C(F)(F)F)cc1)CCC2)c1ccc(C(=O)O)cc1` [Compound 51, (S)-4-(1-(2-(trifluoromethyl)-4-(4-(trifluoromethyl)phenyl)-4,5,6,7-tetrahydropyrazolo[1,5-a]pyrimidine-3-carboxamido)ethyl)benzoic Acid], for which the IC50 on EP4 [2] is 100 nM.
